Among the data in patent US7964560B2, “Hepatitis C virus inhibitors” (Bristol-Myers Squibb Company, priority 2008, dated 2011) are IC50 values, retold here.

For assay [1], the target named is T1, HCV NS3/4A protease complex, H77 strain (Hepatitis C virus genotype 1a, UniProt P27958, C1454S/C1711G).
T1 construct: DNA encoding the recombinant HCV NS3/4A protease complex (amino acids 1027 to 1711) for these strains; His tag (inferred from pET21b vector and Ni-NTA purification); made in house; host or cells: Escherichia coli BL21 (DE3), pET21b
T1 sequence (P27958 1027-1711 C1454S/C1711G, one chain of several): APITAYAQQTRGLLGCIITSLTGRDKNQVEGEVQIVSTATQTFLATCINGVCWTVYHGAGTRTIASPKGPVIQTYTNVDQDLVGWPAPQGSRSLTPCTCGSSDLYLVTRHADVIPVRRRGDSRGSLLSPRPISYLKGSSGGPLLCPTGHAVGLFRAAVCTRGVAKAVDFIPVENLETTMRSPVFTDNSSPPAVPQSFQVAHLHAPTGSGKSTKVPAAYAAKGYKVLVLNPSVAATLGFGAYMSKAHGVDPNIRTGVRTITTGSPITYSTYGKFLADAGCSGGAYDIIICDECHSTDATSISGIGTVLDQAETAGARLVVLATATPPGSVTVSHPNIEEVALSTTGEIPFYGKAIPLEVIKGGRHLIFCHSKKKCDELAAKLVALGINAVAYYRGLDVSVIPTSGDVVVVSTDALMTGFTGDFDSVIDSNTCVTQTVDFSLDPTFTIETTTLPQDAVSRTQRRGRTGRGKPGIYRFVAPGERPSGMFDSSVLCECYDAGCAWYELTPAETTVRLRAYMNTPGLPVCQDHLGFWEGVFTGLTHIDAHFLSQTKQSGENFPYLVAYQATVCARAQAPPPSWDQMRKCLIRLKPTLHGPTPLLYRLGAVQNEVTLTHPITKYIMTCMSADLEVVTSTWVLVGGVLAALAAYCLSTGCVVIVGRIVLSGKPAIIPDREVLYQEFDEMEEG
In words: FRET peptide assay to monitor HCV NS3/4A proteolytic activity (H77 strain). It is filed as biochemical, Hepatitis C virus (1a genotype). From the text:
(§1) HCV […] protease complexes, derived from the BMS strain, H77 strain or J4L6S strain, were generated, as described below. These purified recombinant proteins were generated for use in a homogeneous assay (see below) to provide an indication of how effective compounds of the present disclosure would be in inhibiting HCV NS3 proteolytic activity.
(§2) Serum from an HCV-infected patient was obtained from Dr. T. Wright, San Francisco Hospital. An engineered full-length cDNA (compliment deoxyribonucleic acid) template of the HCV genome (BMS strain) was constructed from DNA fragments obtained by reverse transcription-PCR (RT-PCR) of serum RNA (ribonucleic acid) and using primers selected on the basis of homology between other genotype 1a strains. From the determination of the entire genome sequence, a genotype 1a was assigned to the HCV isolate according to the classification of Simmonds et al. (See Simmonds, P. et al., J. Clin. Microbiol., 31(6), 1493-1503 (1993)). […] The infectious clones, H77 (1a genotype) and J4L6S (1b genotype) were obtained from R. Purcell (NIH) and the sequences are published in GENBANK® (AAB67036, see Yanagi, M. et al., Proc. Natl. Acad. Sci. U.S.A., 94(16):8738-8743 (1997); AF054247, see Yanagi, M. et al., Virology, 244(1):161-172 (1998)).
(§3) The H77 and J4L6S strains were used for production of recombinant NS3/4A protease complexes. […]

Assay [2] has as its target T2, HCV NS3/4A protease complex, J4L6S strain (Hepatitis C virus genotype 1b, UniProt O92972, C1454S/C1711G).
T2 construct: DNA encoding the recombinant HCV NS3/4A protease complex (amino acids 1027 to 1711) for these strains; His tag (inferred from pET21b vector and Ni-NTA purification); made in house; host or cells: Escherichia coli BL21 (DE3), pET21b
In words: FRET peptide assay to monitor HCV NS3/4A proteolytic activity (J4L6S strain). It is filed as biochemical, Hepatitis C virus (1b genotype).
Description: as §1, §2, §3

T2 sequence (O92972 1027-1711 C1454S/C1711G, one chain of several): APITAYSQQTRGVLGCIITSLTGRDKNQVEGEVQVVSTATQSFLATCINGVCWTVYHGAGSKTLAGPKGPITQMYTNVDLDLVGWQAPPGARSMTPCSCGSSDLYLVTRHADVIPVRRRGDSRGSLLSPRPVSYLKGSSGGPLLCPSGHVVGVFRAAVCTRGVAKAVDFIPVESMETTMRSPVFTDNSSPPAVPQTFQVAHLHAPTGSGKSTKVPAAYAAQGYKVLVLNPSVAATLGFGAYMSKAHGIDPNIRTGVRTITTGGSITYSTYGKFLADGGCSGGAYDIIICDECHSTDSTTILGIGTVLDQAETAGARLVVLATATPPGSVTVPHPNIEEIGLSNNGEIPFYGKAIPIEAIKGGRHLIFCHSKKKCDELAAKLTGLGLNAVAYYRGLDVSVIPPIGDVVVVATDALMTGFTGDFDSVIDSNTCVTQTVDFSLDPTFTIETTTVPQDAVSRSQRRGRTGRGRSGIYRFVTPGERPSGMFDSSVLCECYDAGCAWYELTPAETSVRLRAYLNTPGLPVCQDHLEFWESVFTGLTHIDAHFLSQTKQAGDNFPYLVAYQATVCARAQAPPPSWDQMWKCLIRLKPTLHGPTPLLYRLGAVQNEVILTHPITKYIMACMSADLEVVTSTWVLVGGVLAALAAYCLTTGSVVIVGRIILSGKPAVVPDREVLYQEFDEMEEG

As to `C=C[C@@H]1C[C@]1(NC(=O)[C@@H]1C[C@@](SCCCC)(c2ccc(-c3ccccc3)cc2)CN1C(=O)[C@@H](NC(=O)OC(C)(C)C)C(C)(C)C)C(=O)NS(=O)(=O)C1CC1` [Example 1, tert-butyl (S)-1-((2S,4R)-4-(biphenyl-4-yl)-4-(butylthio)-2-((1R,2S)-1-(cyclopropylsulfonylcarbamoyl)-2-vinylcyclopropylcarbamoyl)pyrrolidin-1-yl)-3,3-dimethyl-1-oxobutan-2-ylcarbamate], the IC50 in assay [1] came to 1.7 nM; in assay [2], 1.1 nM.
